This is an account of results in patent US20090313718A1, “POLYNUCLEOTIDES ENCODING CARYOPHYLLENE SYNTHASE AND USES THEREOF” (priority 2006, published 2009).

In series [1] the target is T1, TPS23-Del (Zea mays, UniProt B2C4D0).
T1 sequence (B2C4D0 1-547): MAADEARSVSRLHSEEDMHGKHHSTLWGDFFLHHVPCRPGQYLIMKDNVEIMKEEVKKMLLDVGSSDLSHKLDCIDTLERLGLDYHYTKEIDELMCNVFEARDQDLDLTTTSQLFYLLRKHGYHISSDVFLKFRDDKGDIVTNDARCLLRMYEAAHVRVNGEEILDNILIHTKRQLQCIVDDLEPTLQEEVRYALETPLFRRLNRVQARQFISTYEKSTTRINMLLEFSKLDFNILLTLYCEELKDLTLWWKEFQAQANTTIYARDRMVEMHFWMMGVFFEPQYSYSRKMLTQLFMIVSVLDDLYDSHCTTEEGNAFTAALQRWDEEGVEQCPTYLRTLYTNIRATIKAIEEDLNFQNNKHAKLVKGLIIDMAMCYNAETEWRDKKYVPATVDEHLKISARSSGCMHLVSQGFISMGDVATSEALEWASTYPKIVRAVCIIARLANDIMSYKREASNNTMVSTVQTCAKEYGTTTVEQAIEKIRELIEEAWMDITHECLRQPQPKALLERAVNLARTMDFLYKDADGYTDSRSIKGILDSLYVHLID
As to the kind of experiment: Kinetic and metal ion cofactor assay with purified TPS23 and tritium-labeled FPP.

In series [2] the target is T1, TPS23-Del. As to the kind of experiment: Substrate specificity and product identification of recombinant TPS23 (SPME, GC-MS). The format is biochemical, maize (Zea mays L.). Set-up: For expression with a N-terminal 8×His tag the ORF of tps23 was amplified; 8xHis (N); made in house; host or cells: E. coli BL21 (DE3), vector pHIS8-3. The note with it: recombinant His-tagged TPS23-Del from E. coli BL21 (DE3).

Another series has as its system Heterorhabditis megidis. As to the kind of experiment: Belowground six-arm olfactometer assay. The series is classed as in vivo. How it is done:
9. Bioassays • Attraction of the nematode Heterorhabditis megidis toward (E)-β-caryophyllene was tested with belowground six-arm olfactometer assays (Rasmann et al., 2005). The apparatus consisted of a central glass chamber with six evenly distributed side arms that connect it to six glass pots. The entire system was filled with moist sand (10% water). An aliquot of 0.2 μl of authentic (E)-β-caryophyllene (98% pure; Sigma-Aldrich) was injected into one of the glass pots and the five untreated pots were used as controls. About 2000 H. megidis were released in a drop of water in the centre of the central arena. […] On the next day, recovered nematodes were counted. • To test the above ground role of (E)-β-caryophyllene in attracting herbivore enemies, S. littoralis caterpillars and the solitary endoparasitoid Cotesia marginiventris were reared as described by Turlings et al. (2004). […] The experiment was repeated seven times. • The behavioral responses of parasitoids and entomopathogenic nematodes to (E)-β-caryophyllene were analyzed with a log-linear model corrected for the expected distribution within the olfactometer (Turlings et al. 2004). The model was fitted by maximum quasilikelihood estimation in the software package R (Version 2.4.0) and its adequacy was assessed through likelihood ratio statistics and examination of residuals. […]

The test system of a further series is Cotesia marginiventris. As to the kind of experiment: Four-arm olfactometer assay with parasitoid females. The note with it: odor vs pure air. The series is classed as in vivo. How it is done: FIG. 9 provides evidence that the parasitic wasp Cotesia marginiventris is attracted by (E)-β-caryophyllene after previous oviposition experience. Responses of the parasitic wasp Cotesia marginiventris to (E)-β-caryophyllene: The attraction of parasitoid females to a pure standard of (E)-β-caryophyllene was tested in a four-arm olfactometer. Two groups of parasitoids were tested: naïve wasps and wasps with a previous oviposition experience on host larvae in the presence of (E)-β-caryophyllene. The parasitoids were tested in groups of six (n=14).
9. […] On the next day, recovered nematodes were counted. • To test the above ground role of (E)-β-caryophyllene in attracting herbivore enemies, S. littoralis caterpillars and the solitary endoparasitoid Cotesia marginiventris were reared as described by Turlings et al. (2004). […] The experiment was repeated seven times. • The behavioral responses of parasitoids and entomopathogenic nematodes to (E)-β-caryophyllene were analyzed with a log-linear model corrected for the expected distribution within the olfactometer (Turlings et al. 2004). The model was fitted by maximum quasilikelihood estimation in the software package R (Version 2.4.0) and its adequacy was assessed through likelihood ratio statistics and examination of residuals. […]

The subject of the next series is pathogens. The note with it: cited from earlier work.
The test system of series [3] is adult females of D. v. virgifera. The note with it: in vivo; cited from earlier work.
For series [4] the following is noted: stored at −80° C.
Substrate in series [5]: CC(C)=CCC/C(C)=C/CC/C(C)=C/CO[P@@](=O)(O)OP(=O)(O)O
The experiment in a line: purified protein, by the assay type. The note with it: other: FPP as substrate, TPS23-Del heterologously expressed in E. coli.

The mark [6] stands for this setting: read-out: Km of divalent metal ion cofactor, TPS23-Del heterologously expressed in E. coli.

“Also recorded” adds a separate entry of the source. Like-named read-outs stand apart in the source and are kept apart here.

In the case of `[Mn+2]` [Mn^2+], on TPS23-Del [1] (0.25 mM), the “enzyme activity with divalent cation” value is reported as “substantial activities”. Further, the Km (usually the concentration of substrate that gives half-maximal velocity) at TPS23-Del [1] (setting [6]) is 28 ± 6 µM.

Take `CC(C)=CCC/C(C)=C/COP(=O)(O)OP(=O)(O)O` [GPP, geranyl diphosphate]: the acceptance as substrate result at TPS23-Del [2] is on record as “does not accept; also recorded: did not accept”.

Take `CC(C)=CCC/C(C)=C/CC/C(C)=C/CO[P@@](=O)(O)OP(=O)(O)O` [FPP, (E,E)-farnesyl diphosphate]: the Michaelis constant (Km) at TPS23-Del [1] (read-out: Km value for FPP, purified enzyme, tritium-labeled FPP) turned out to be 2.4 ± 0.4 µM.

With `C=C1CC/C=C(\C)CC[C@@H]2[C@@H]1CC2(C)C` [(E)-β-caryophyllene], the “nematodes recovered from spiked arm compared to average of the five arms not spiked” value with Heterorhabditis megidis (0.2 μl injected into one pot, 24 h after release of about 2000 H. megidis) is listed as “Approximately twice”. The attraction of nematodes result in the series on Heterorhabditis megidis (six-arm olfactometer filled with moist sand, spiked arm vs five control arms) is given as “significantly larger number; also recorded: attracts”. In addition, the “attraction of experienced wasps” value in the series with Cotesia marginiventris (females with previous oviposition experience on host larvae in the presence of (E)-β-caryophyllene) is “significant preference; also recorded: preferred air carrying (E)-β-caryophyllene to pure air”. Besides, in the series on Cotesia marginiventris (females without oviposition experience), the “attraction of naïve wasps” value was “did not show this preference; also recorded: not attracted”. Further, in the series on pathogens, the anti-microbial activity entry is on record as “has anti-microbial activity”. Further, in series [3], the “attractiveness to adult females of D. v. virgifera” value is “reported attractiveness”.

As for `CC(C)=CCC/C(C)=C/CC/C(C)=C/CC/C(C)=C/COP(=O)(O)OP(=O)(O)O` [GGPP, geranylgeranyl diphosphate], on TPS23-Del [2], the acceptance as substrate entry was “does not accept; also recorded: did not accept”.

For the molecule `[Mg+2]` [Mg^2+], at TPS23-Del [1] (10 mM), the “enzyme activity with divalent cation” value is “substantial activities”. The Km on TPS23-Del [1] (setting [6]) turned out to be 183 ± 34 µM.

Regarding `CN1CCCCC1CCN1c2ccccc2Sc2ccc([S+](C)[O-])cc21` (stereo not shown) [TPS23-Del], the “time enzyme activity was stable” value in series [4] is “at least 1 month”.

B1: TPS23-Del (Zea mays) (protein)
chain: MAADEARSVSRLHSEEDMHGKHHSTLWGDFFLHHVPCRPGQYLIMKDNVEIMKEEVKKMLLDVGSSDLSHKLDCIDTLERLGLDYHYTKEIDELMCNVFEARDQDLDLTTTSQLFYLLRKHGYHISSDVFLKFRDDKGDIVTNDARCLLRMYEAAHVRVNGEEILDNILIHTKRQLQCIVDDLEPTLQEEVRYALETPLFRRLNRVQARQFISTYEKSTTRINMLLEFSKLDFNILLTLYCEELKDLTLWWKEFQAQANTTIYARDRMVEMHFWMMGVFFEPQYSYSRKMLTQLFMIVSVLDDLYDSHCTTEEGNAFTAALQRWDEEGVEQCPTYLRTLYTNIRATIKAIEEDLNFQNNKHAKLVKGLIIDMAMCYNAETEWRDKKYVPATVDEHLKISARSSGCMHLVSQGFISMGDVATSEALEWASTYPKIVRAVCIIARLANDIMSYKREASNNTMVSTVQTCAKEYGTTTVEQAIEKIRELIEEAWMDITHECLRQPQPKALLERAVNLARTMDFLYKDADGYTDSRSIKGILDSLYVHLID
As for B1, the Km in series [5] (0.25 mM MnCl2) turned out to be 1.1 ± 0.3 µM; in series [5] (10 mM MgCl2), 3.7 ± 0.5 µM.
